Three molecules from EP3046573B1, “AMYLIN ANALOGUES” (Zealand Pharma A/S, priority 2013, dated 2015) can be followed below.

Data set [1] can be described thus: Pharmacokinetics of test compounds in mice. It counts as in vivo. Conditions: female, NMRI, mouse, plasma; for bioavailability: AUCinf (sc) / AUCinf (iv) x 100, 100 nmol/kg (Pramlintide 400 nmol/kg); for half-life: 100 nmol/kg (Pramlintide 400 nmol/kg). How it is done:
NMRI mice (supplier: Taconic; females with a body weight of approximately 25 g) were given either a single subcutaneous (sc) bolus or a single intravenous (iv) bolus of each peptide to be tested.
Following sc administration of test peptide (Compound 176, 1 or 18) (100 nmol/kg), blood samples were drawn 0.5, 2, 4, 8, 18, 40 and 56 hours post-dosing by eye bleeding. Following iv administration of Compound 176, 1 or 18 (100 nmol/kg), blood samples were drawn 0.08, 0.17, 0.5, 2, 8, 18 and 30 hours post-dosing by eye bleeding. The dosing vehicle used for each test peptide was a mannitol-containing histidine buffer (pH 7.0).
Pramlintide (400 nmol/kg) was also administered as a single sc bolus or as a single iv bolus to mice. Following sc administration, blood samples were drawn 5, 15, 20, 30, 60, 120, 180 and 240 minutes post-dosing by sublingual bleeding. Following iv administration, blood samples were drawn 5, 10, 15, 30, 60, 120, 180, and 240 minutes post-dosing by sublingual bleeding. The dosing vehicle used for Pramlintide was a mannitol-containing acetate buffer (pH 4.0).
Blood samples were taken from two mice at each time point, i.e. 14-16 mice were included for each compound. The mice were euthanized immediately after blood sampling by cervical dislocation. Plasma samples were analyzed after solid-phase extraction (SPE) by liquid chromatography mass spectrometry (LC-MS/MS). Mean plasma concentrations were used for calculation of the pharmacokinetic parameters using the non-compartmental approach in Phoenix WinNonlin 6.3.
Plasma terminal elimination half-life (t½) was determined as In(2)/λz, where λz is the magnitude of the slope of the log linear regression of the log concentration versus time profile during the terminal phase.
Bioavailability was determined as AUCinf (sc) / AUCinf (iv) x 100, where AUCinf is the area under the plasma concentration - time curve extrapolated to infinity (AUCinf = AUClast + Clast/λz, where Clast is the last observed plasma concentration).

The subject of data set [2] is male Zucker diabetic fatty (ZDF) rats. Put plainly: Efficacy testing: glycemic control in Zucker diabetic fatty rats. It counts as in vivo. The settings on record: for terminal HbA1c levels: 4 weeks, vehicle 8.7 ± 0.2. The method, then: Whole-blood glucose levels were determined on tail-vein blood samples by the Biosen (EKF Diagnostic, Germany) enzyme-based electrode method. Blood samples were analyzed for glycated hemoglobin (HbA1c) using a Cobas c111 analyzer (Roche Diagnostics, Mannheim, Germany). Plasma insulin levels were measured using a Meso Scale Discovery (MSD) system (Rockville, MD, USA). Liver fat content was determined by magnetic resonance (MR) scanning using an Echo systems MR scanner. Fat depots were measured by weighing of excised fat.
84 male Zucker diabetic fatty (ZDF) rats (9-10 weeks of age) were used in this study. The animals were housed in groups of n = 2. Stratification of the animals was based on non-fasting blood glucose (primary), changes in non-fasting blood glucose measured from the arrival of the animals until one week before the initiation of the study (secondary) and body weight (tertiary). The animals were further divided into two "teams" with a pair-fed group (group 2) allocated to team 2. Animals from group 2 were pair-fed in order to compare between the contribution made by reduced food intake and by drug-induced effects on glycemic control. The amount of food eaten by the animals treated with Compound 82 (30 nmol/kg, team 1) each day was determined, and the same amount was given to a vehicle-treated pair-fed group of animals the following day.
Rats were treated for 4 weeks with Compound 82 (3, 30 and 100 nmol/kg, sc, every (ev.) 5th day), Compound 18 (30 nmol/kg sc, every 5th day), or the GLP-1 analogue liraglutide (40 nmol/kg sc, twice daily (bid)).
The effects of the compounds on glycemic control were investigated by measurement of non-fasting and fasting blood glucose levels and HbA1c levels.
Statistical analyses were performed using GraphPad™ Prism version 5. The measured parameters were compared using one- way ANOVA followed by Dunnett's multiple comparison test. Comparison between the pair-fed vehicle-treated group and the Compound 82 (30 nmol/kg) group was done using Student's two-tailed and unpaired t-test. Differences were considered statistically significant at p < 0.05.

Where [3] appears, read: single iv bolus, read-out: t½ (hours) iv (converted).
Setting [4] is: single sc bolus, read-out: t½ (hours) sc (converted).

Like-named read-outs stand apart in the source and are kept apart here. Numbered stars: 1 amine (or outer) side, 2 acyl side, 3 side chain; on linkers, the order of the positions; unused ones are H or OH. Bridge positions count the residues as written; N and C are the ends. Square brackets hold non-standard residues; d marks the D form. Peptide text beside a SMILES is read from it. * marks the point of attachment. C20 diacid = O=C(O)CCCCCCCCCCCCCCCCCCC(=O)*; γGlu = O=C(O)[C@H](CCC(=O)[*:2])N[*:1]; NMeI = CC[C@H](C)[C@H](NC)C(=O)O; Sar = CNCC(=O)O

Turning to `CC[C@H](C)[C@@H](C(=O)N[C@@H](CC(C)C)C(=O)N[C@@H](CO)C(=O)N[C@@H](CO)C(=O)N[C@H](C(=O)N[C@@H](CC(N)=O)C(=O)N[C@H](C(=O)NCC(=O)N[C@@H](CO)C(=O)N[C@@H](CC(N)=O)C(=O)N[C@H](C(=O)N1CCC[C@H]1C(N)=O)[C@@H](C)O)C(C)C)[C@@H](C)O)N(C)C(=O)[C@H](C)NC(=O)CN(C)C(=O)[C@H](Cc1ccccc1)NC(=O)[C@H](CC(N)=O)NC(=O)[C@H](CC(N)=O)NC(=O)[C@H](CO)NC(=O)[C@H](CO)NC(=O)[C@H](Cc1c[nH]cn1)NC(=O)[C@H](Cc1c[nH]cn1)NC(=O)[C@H](CC(C)C)NC(=O)[C@H](Cc1ccccc1)NC(=O)[C@H](CCC(=O)O)NC(=O)[C@H](C)NC(=O)[C@H](CC(C)C)NC(=O)[C@H](CCCNC(=N)N)NC(=O)[C@H](CCC(N)=O)NC(=O)[C@@H](NC(=O)[C@H](C)NC(=O)[C@@H]1CSSC[C@H](NC(=O)[C@H](CCCNC(=N)N)NC(=O)CC[C@H](NC(=O)CCCCCCCCCCCCCCCCCCC(=O)O)C(=O)O)C(=O)N[C@@H](CC(N)=O)C(=O)N[C@@H]([C@@H](C)O)C(=O)N[C@@H](C)C(=O)N[C@@H]([C@@H](C)O)C(=O)N1)[C@@H](C)O` [Compound 1, [19CD]-isoGlu-RC()NTATC()ATQRLAEFLHHSSNNF-Gly(Me)-A-Ile(Me)-LSSTNVGSNTP-NH2] ({C20 diacid-γGlu}-RCNTATCATQRLAEFLHHSSNNF[Sar]A[NMeI]LSSTNVGSNTP-NH2; disulfide 2-7), the bioavailability (as a rule, dose-corrected exposure relative to a reference, in per cent) in data set [1] is 77%. Also, the half-life in data set [1] (setting [3]) is 32.9 h; in data set [1] (setting [4]), 34.6 h.

On to `CC[C@H](C)[C@@H](C(=O)N[C@@H](CC(C)C)C(=O)N[C@@H](CO)C(=O)N[C@@H](CO)C(=O)N[C@H](C(=O)N[C@@H](CCC(=O)O)C(=O)N[C@H](C(=O)NCC(=O)N[C@@H](CO)C(=O)N[C@@H](CCC(=O)O)C(=O)N[C@H](C(=O)N1CCC[C@H]1C(N)=O)[C@@H](C)O)C(C)C)[C@@H](C)O)N(C)C(=O)[C@H](C)NC(=O)CN(C)C(=O)[C@H](Cc1ccccc1)NC(=O)[C@H](CO)NC(=O)[C@H](CO)NC(=O)[C@H](CCCNC(=N)N)NC(=O)[C@H](Cc1c[nH]cn1)NC(=O)[C@H](CC(C)C)NC(=O)[C@H](Cc1ccccc1)NC(=O)[C@H](CCC(=O)O)NC(=O)[C@H](C)NC(=O)[C@H](CC(C)C)NC(=O)[C@H](CCCNC(=N)N)NC(=O)[C@H](CCC(N)=O)NC(=O)[C@@H](NC(=O)[C@H](C)NC(=O)[C@@H]1CSSC[C@H](NC(=O)[C@H](CCCNC(=N)N)NC(=O)CC[C@H](NC(=O)CCCCCCCCCCCCCCCCCCC(=O)O)C(=O)O)C(=O)N[C@@H](CC(N)=O)C(=O)N[C@@H]([C@@H](C)O)C(=O)N[C@@H](C)C(=O)N[C@@H]([C@@H](C)O)C(=O)N1)[C@@H](C)O` [Compound 82, [19CD]-isoGlu-RC()NTATC()ATQRLAEFLHRSSF-Gly(Me)-A-Ile(Me)-LSSTEVGSETP-NH2] ({C20 diacid-γGlu}-RCNTATCATQRLAEFLHRSSF[Sar]A[NMeI]LSSTEVGSETP-NH2; disulfide 2-7), for which the “terminal HbA1c levels” value in data set [2] (3 nmol/kg sc every 5th day) was 5.6 ± 0.2%; in data set [2] (30 nmol/kg sc every 5th day), 5.4 ± 0.1%; in data set [2] (100 nmol/kg sc every 5th day), 5.4 ± 0.1%. In data set [2] (30 nmol/kg, P < 0.05), the “HbA1c levels compared to the pair-fed group” value is reported as “significant reductions”. Besides, the “non-fasting blood glucose levels on day 13 and on day 27” value in data set [2] (compared to the vehicle treated rats, P < 0.001) is recorded as “significantly lower”. In data set [2] (terminal, Compound 82 3, 30, and 100 nmol/kg, Compound 18 30 nmol/kg, P < 0.001 vs. vehicle), the “fasting blood glucose levels” value is listed as “significantly decreased”.

`CC[C@H](C)[C@@H](C(=O)N[C@@H](CC(C)C)C(=O)N1CCC[C@H]1C(=O)N1CCC[C@H]1C(=O)N[C@H](C(=O)N[C@@H](CC(N)=O)C(=O)N[C@H](C(=O)NCC(=O)N[C@@H](CO)C(=O)N[C@@H](CC(N)=O)C(=O)N[C@H](C(=O)N1CCC[C@H]1C(N)=O)[C@@H](C)O)C(C)C)[C@@H](C)O)N(C)C(=O)CN(C)C(=O)[C@H](Cc1ccccc1)NC(=O)[C@H](CC(N)=O)NC(=O)[C@H](CC(N)=O)NC(=O)[C@H](CO)NC(=O)[C@H](CO)NC(=O)[C@H](Cc1c[nH]cn1)NC(=O)[C@H](Cc1c[nH]cn1)NC(=O)[C@H](CC(C)C)NC(=O)[C@H](Cc1ccccc1)NC(=O)[C@H](CCC(=O)O)NC(=O)[C@H](C)NC(=O)[C@H](CC(C)C)NC(=O)[C@H](CCCNC(=N)N)NC(=O)[C@H](CCC(N)=O)NC(=O)[C@@H](NC(=O)[C@H](C)NC(=O)[C@@H]1CSSC[C@H](NC(=O)[C@H](CCCNC(=N)N)NC(=O)CC[C@H](NC(=O)CCCCCCCCCCCCCCCCCCC(=O)O)C(=O)O)C(=O)N[C@@H](CC(N)=O)C(=O)N[C@@H]([C@@H](C)O)C(=O)N[C@@H](C)C(=O)N[C@@H]([C@@H](C)O)C(=O)N1)[C@@H](C)O` [Compound 176, [19CD]-isoGlu-RC()NTATC()ATQRLAEFLHHSSNNF-Gly(Me)-Ile(Me)-LPPTNVGSNTP-NH2] ({C20 diacid-γGlu}-RCNTATCATQRLAEFLHHSSNNF[Sar][NMeI]LPPTNVGSNTP-NH2; disulfide 2-7) returned a bioavailability in data set [1] of 81%. The figures for the half-life in data set [1] (setting [3]) and in data set [1] (setting [4]) were 24.4 h and 23.8 h, respectively.
